“And” between values parts separate entries of the source, which are not always exact repeats. Equal entries are not always repeated.
Molecular target: HIS-Keap1 full length / Biotin-Nrf2 (16-mer) (Homo sapiens, UniProt Q14145)
Experiment: biochemical

Chain of HIS-Keap1 full length / Biotin-Nrf2 (16-mer) (Q14145 whole entry): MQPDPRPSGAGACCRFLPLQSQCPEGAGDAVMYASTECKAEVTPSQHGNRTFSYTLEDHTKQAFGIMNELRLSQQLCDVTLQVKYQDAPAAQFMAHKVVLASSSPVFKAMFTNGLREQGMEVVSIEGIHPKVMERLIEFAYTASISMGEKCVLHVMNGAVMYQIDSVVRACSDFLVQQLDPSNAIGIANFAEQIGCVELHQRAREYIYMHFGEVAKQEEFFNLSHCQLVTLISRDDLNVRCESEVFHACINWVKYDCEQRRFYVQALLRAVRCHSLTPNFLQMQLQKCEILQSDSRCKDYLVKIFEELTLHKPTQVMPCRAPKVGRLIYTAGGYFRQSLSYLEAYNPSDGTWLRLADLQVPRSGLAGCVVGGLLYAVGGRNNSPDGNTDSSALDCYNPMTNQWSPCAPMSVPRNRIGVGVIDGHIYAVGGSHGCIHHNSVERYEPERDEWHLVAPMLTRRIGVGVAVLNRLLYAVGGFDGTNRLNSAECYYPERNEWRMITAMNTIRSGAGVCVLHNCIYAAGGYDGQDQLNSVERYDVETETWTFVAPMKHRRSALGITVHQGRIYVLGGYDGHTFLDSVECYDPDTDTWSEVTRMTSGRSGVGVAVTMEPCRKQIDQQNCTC

Compound	IC50
CC(C)(C(=O)O)C1c2ccc3c(c2)CN(CC3)C(=O)c2ccc(cc2F)CCCCCCn2nnc3cc1ccc32 (stereo not drawn) [Compound 281]	0.4 nM (2×) and 0.5 nM (2×) and 1.4 nM and 0.6 nM
Cc1ccc2cc1OCCCCn1nnc3cc(ccc31)C(CC(=O)O)c1ccc3c(c1)CN(CC3)C2=O (stereo not drawn) [Compound 428]	1090 nM and 962 nM
O=C(O)CC1c2ccc3c(c2)CN(CC3)C(=O)c2cccc(c2)OCCCCCc2nnc3cc1ccn23 (stereo not drawn) [Compound 416]	2420 nM and 348 nM
Cc1c2cccc1C(=O)N1CCc3ccc(cc3C1)C(CC(=O)O)c1ccc3c(c1)nnn3CCCCO2 (stereo not drawn) [Compound 417]	42.7 nM and 35.2 nM
Cc1ccc2cc1OC/C=C/CCn1nnc3cc(ccc31)C(CC(=O)O)c1ccc3c(c1)CN(CC3)C2=O (stereo not drawn) [Compound 418]	390 nM and 381 nM
O=C(O)CC1c2ccc3c(c2)CN(CC3)C(=O)c2cccc(c2)OCCOCCn2nnc3cc1ccc32 (stereo not drawn) [Compound 410]	1050 nM and 1900 nM
Cc1c2ccc3c1nnn3CCCCCCOc1cnc(nc1)C(=O)N1CCc3ccc(cc3C1)C2CC(=O)O (stereo not drawn) [Compound 198]	0.5 nM and 1.2 nM and 1 nM
O=C(O)CC1c2ccc3c(c2)CN(CC3)C(=O)c2cccc(c2)OCCCCc2nnc3cc1ccn23 (stereo not drawn) [Compound 415]	13200 nM and 8750 nM
O=C(O)C[C@@H]1c2ccc3c(c2)CN(CC3)C(=O)c2cccc(c2)OCCCCCn2nnc3cc1ccc32 [Compound 433]	287 nM and 204 nM
Cc1ccc2cc1C(=O)N1CCc3ccc(cc3C1)C(CC(=O)O)c1ccc3c(c1)nnn3CCCCO2 (stereo not drawn) [Compound 431]	102 nM and 96.9 nM
Cc1c2cccc1C(=O)N1CCc3ccc(cc3C1)C(CC(=O)O)c1ccc3c(c1)nnn3CC/C=C/CO2 (stereo not drawn) [Compound 427]	9.2 nM and 9.9 nM
CC(C)(C(=O)O)C1c2ccc3c(c2)CN(CC3)C(=O)c2ccc(cc2F)CCCCCn2nnc3cc1ccc32 (stereo not drawn) [Compound 271]	1.9 nM (2×) and 1.7 nM
Cc1nc2ncc1C(CC(=O)O)c1ccc3c(c1)CN(CC3)C(=O)c1c(F)cc(cc1F)OCCCCO2 (stereo not drawn) [Compound 197]	164 nM and 148 nM
Cc1c2cccc1C(=O)N1CCc3ccc(cc3C1)C(CC(=O)O)c1ccc3c(c1)nnn3C/C=C/CO2 (stereo not drawn) [Compound 429]	112 nM and 82.3 nM
Cc1c2ccc3c1nnn3CCOCCOc1cccc(c1)C(=O)N1CCc3ccc(cc3C1)C2CC(=O)O (stereo not drawn) [Compound 414]	106 nM and 313 nM
Cc1cc2ccc1C(=O)N1CCc3ccc(cc3C1)C(CC(=O)O)c1ccc3c(nnn3CCCCC2)c1F (stereo not drawn) [Compound 147]	0.4 nM and 0.3 nM
O=C(O)C[C@@H]1c2ccc3c(c2)CN(CC3)Cc2ccc(cc2)OCCCCCCn2nnc3cc1ccc32 [Compound 405]	2150 nM and 2050 nM
Cc1ccc2cc1C(=O)N1CCc3ccc(cc3C1)C(CC(=O)O)c1ccc3c(c1)nnn3CC/C=C/CO2 (stereo not drawn) [Compound 426]	9.2 nM and 11.6 nM
Cc1c2ccc3c1nnn3CCCCCCc1ccc3c(c1)cc(n3C)C(=O)N1CCc3ccc(cc3C1)[C@H]2[C@@H](C)C(=O)O [Compound 29]	192 nM and 103 nM
O=C(O)CC1c2ccc3c(c2)CN(CC3)C(=O)c2cccc(c2)OC/C=C/CCn2nnc3cc1ccc32 (stereo not drawn) [Compound 439]	52.7 nM and 121 nM and 119 nM and 122 nM and 106 nM
CC(C)(C(=O)O)[C@H]1c2ccc3c(c2)CN(CC3)C(=O)c2c(F)cc(cc2F)OCCCCCCn2nnc3cc1ccc32 [Compound 235]	0.5 nM and 0.6 nM (2×)

Source: patent US12692274B2, “Tetrahydroisoquinoline derivatives for the treatment of red blood disorders and inflammatory diseases” (Sanofi, priority 2020, dated 2026)
